“And” between values parts separate entries of the source, which are not always exact repeats. Equal entries are not always repeated. Bridge positions count the residues as written; N and C are the ends. Peptide text beside a SMILES is read from it.
How the values were obtained:
[1] = target: T1, α7 nAChRs (Homo sapiens, UniProt P36544)
[2] = target: T1, α7 nAChRs; remark: listed apart in the source
[3] = target: Ls-AChBP (Lymnaea stagnalis, UniProt P58154); assay: biochemical; conditions: SEM
Sequence of Ls-AChBP (P58154 20-229 limits assumed): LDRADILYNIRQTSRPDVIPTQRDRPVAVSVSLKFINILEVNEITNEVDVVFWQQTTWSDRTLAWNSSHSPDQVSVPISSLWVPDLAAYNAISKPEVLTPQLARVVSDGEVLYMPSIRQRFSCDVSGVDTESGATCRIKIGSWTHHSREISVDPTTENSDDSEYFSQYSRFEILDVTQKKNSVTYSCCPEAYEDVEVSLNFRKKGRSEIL

T1 sequence (P36544 23-502): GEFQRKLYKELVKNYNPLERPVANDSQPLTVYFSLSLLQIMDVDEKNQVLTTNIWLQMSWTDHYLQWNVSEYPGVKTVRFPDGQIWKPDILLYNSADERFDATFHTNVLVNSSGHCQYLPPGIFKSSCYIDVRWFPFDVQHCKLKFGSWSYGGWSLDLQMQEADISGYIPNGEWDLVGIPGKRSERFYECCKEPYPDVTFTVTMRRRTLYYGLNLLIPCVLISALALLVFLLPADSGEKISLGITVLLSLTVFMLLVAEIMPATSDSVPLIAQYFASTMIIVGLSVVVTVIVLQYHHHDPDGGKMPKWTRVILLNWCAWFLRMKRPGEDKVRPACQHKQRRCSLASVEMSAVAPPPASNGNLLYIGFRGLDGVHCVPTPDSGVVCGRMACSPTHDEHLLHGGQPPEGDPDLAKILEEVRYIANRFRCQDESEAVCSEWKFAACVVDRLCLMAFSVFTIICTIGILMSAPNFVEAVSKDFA

SMILES	extent of inhibition of α7 nAChR responses to choline [1] [%]	residual response at TQS-α7 nAChRs [2] [%]	IC50 [3] [nM]	other results
CC[C@H](C)[C@@H]1NC(=O)[C@H](Cc2c[nH]cn2)NC(=O)[C@@H]2CCCN2C(=O)[C@H](CC(N)=O)NC(=O)[C@H](CC(N)=O)NC(=O)[C@H](C(C)C)NC(=O)[C@H](CC(N)=O)NC(=O)[C@@H]2CSSC[C@H](NC(=O)CN)C(=O)N[C@@H](CSSC[C@@H](C(=O)NCC(N)=O)NC1=O)C(=O)N[C@@H](CO)C(=O)N[C@@H](Cc1c[nH]cn1)C(=O)N1CCC[C@H]1C(=O)N[C@@H](C)C(=O)N2 [OmIA] (H-GCCSHPACNVNNPHICG-NH2; disulfide 2-8, 3-16)	~50	~15	–	–
CC[C@H](C)[C@@H]1NC(=O)[C@H](Cc2cnc[nH]2)NC(=O)[C@@H]2CCCN2C(=O)[C@H](CC(N)=O)NC(=O)[C@H](CC(N)=O)NC(=O)[C@H](C(C)C)NC(=O)[C@H](CC(N)=O)NC(=O)[C@@H]2CSSC[C@H](NC(=O)CN)C(=O)N[C@@H](CSSC[C@@H](C(=O)NCC(N)=O)NC1=O)C(=O)N[C@@H](CO)C(=O)N[C@@H](Cc1cnc[nH]1)C(=O)N1CCC[C@H]1C(=O)N[C@@H](C)C(=O)N2 [OmIA] (H-GCCSHPACNVNNPHICG-NH2; disulfide 2-8, 3-16)	–	–	280 ± 70	–
CC[C@H](C)[C@@H]1NC(=O)[C@H](Cc2c[nH]cn2)NC(=O)[C@@H]2CCCN2C(=O)[C@H](CC(N)=O)NC(=O)[C@H](CC(N)=O)NC(=O)[C@H](C(C)C)NC(=O)[C@H](Cc2c[nH]cn2)NC(=O)[C@@H]2CSSC[C@H](NC(=O)CN)C(=O)N[C@@H](CSSC[C@@H](C(=O)NCC(N)=O)NC1=O)C(=O)N[C@@H](CO)C(=O)N[C@@H](Cc1c[nH]cn1)C(=O)N1CCC[C@H]1C(=O)N[C@@H](C)C(=O)N2 [[N9H]OmIA] (H-GCCSHPACHVNNPHICG-NH2; disulfide 2-8, 3-16)	~50	~15	730 ± 50	–
CC[C@H](C)[C@@H]1NC(=O)[C@H](Cc2c[nH]cn2)NC(=O)[C@@H]2CCCN2C(=O)[C@H](CC(N)=O)NC(=O)[C@H](CC(N)=O)NC(=O)[C@H](C)NC(=O)[C@H](CC(N)=O)NC(=O)[C@@H]2CSSC[C@H](NC(=O)CN)C(=O)N[C@@H](CSSC[C@@H](C(=O)NCC(N)=O)NC1=O)C(=O)N[C@@H](CO)C(=O)N[C@@H](Cc1c[nH]cn1)C(=O)N1CCC[C@H]1C(=O)N[C@@H](C)C(=O)N2 [[V10A]OmIA] (H-GCCSHPACNANNPHICG-NH2; disulfide 2-8, 3-16)	–	–	–	Choline EC50 ± SEM at PNU120596-α7 nAChRs in the presence of peptide [1]: 7 ± 1.20 and 8 ± 0.47 and 11 ± 1.20; mode of antagonism at PNU120596-α7 nAChRs [1]: fully insurmountable antagonism; Fraction 2 ± SEM at PNU120596-modified α7 nAChRs ([1]; SEM): 0.58 ± 0.04 and 0.57 ± 0.11 and 0.37 ± 0.04; Choline EC50 ± SEM at TQS-α7 nAChRs in the presence of peptide [2]: 3 ± 0.20 and 4 ± 1.00 and 5 ± 0.48
CC[C@H](C)[C@@H]1NC(=O)[C@H](Cc2c[nH]cn2)NC(=O)[C@@H]2CCCN2C(=O)[C@H](CC(N)=O)NC(=O)[C@H](CC(N)=O)NC(=O)[C@H](CC(C)C)NC(=O)[C@H](CC(N)=O)NC(=O)[C@@H]2CSSC[C@H](NC(=O)CN)C(=O)N[C@@H](CSSC[C@@H](C(=O)NCC(N)=O)NC1=O)C(=O)N[C@@H](CO)C(=O)N[C@@H](Cc1c[nH]cn1)C(=O)N1CCC[C@H]1C(=O)N[C@@H](C)C(=O)N2 [[V10L]OmIA] (H-GCCSHPACNLNNPHICG-NH2; disulfide 2-8, 3-16)	–	–	680 ± 130	increase of OmIA IC50 at TQS-α7 nAChRs [2]: 10 fold
CC[C@H](C)[C@@H]1NC(=O)[C@H](Cc2c[nH]cn2)NC(=O)[C@@H]2CCCN2C(=O)[C@H](CC(N)=O)NC(=O)[C@H](CC(N)=O)NC(=O)[C@H]([C@@H](C)O)NC(=O)[C@H](CC(N)=O)NC(=O)[C@@H]2CSSC[C@H](NC(=O)CN)C(=O)N[C@@H](CSSC[C@@H](C(=O)NCC(N)=O)NC1=O)C(=O)N[C@@H](CO)C(=O)N[C@@H](Cc1c[nH]cn1)C(=O)N1CCC[C@H]1C(=O)N[C@@H](C)C(=O)N2 [[V10T]OmIA] (H-GCCSHPACNTNNPHICG-NH2; disulfide 2-8, 3-16)	–	–	1000 ± 50	residual response at PNU120596-α7 nAChRs [1]: 60%

Reference: PMC8692984 (Frontiers in Pharmacology, 2021)
